Experimental data from patent publication US11708357B2, “Crystal form of pyrrolidinyl urea derivative and application thereof” (ZHANGZHOU PIEN TZE HUANG PHARMACEUTICAL CO., LTD., priority 2020, dated 2023).

Key:
[1] = Metabolic stability in rat liver microsomes; type: in vitro ADME; details: pH 7.4, 0.5 mg protein/mL, read-out: Intrinsic clearance rate of liver microsomes, Rat
Description: (§1) The metabolic stability of the test compound in human and rat liver microsomes was tested.
(§2) Test compound (10 mM), Testosterone (reference compound, 10 mM), Diclofenac (reference compound, 10 mM) and Propafenone (reference compound, 10 mM).
(§3) 1. 100 mM potassium phosphate buffer (pH 7.4).
(§4) 1. Intermediate solution: 45 μL of DMSO (with 450 μL of 1:1 methanol/water) was used to dilute 5 μL of the sample for test compound or reference compound.
(§5) 2. Working solution: 450 μL of 100 mM potassium phosphate buffer was used to dilute the intermediate solution.
(§6) 10 μL of the working solution of the test compound or reference compound was added to all plates (T0, T5, T10, T20, T30, T60, and NCF60).
(§7) 680 μL of liver microsome solution was added to each well of 96-well plates, then 80 μL was added to each well of the plates, and the plates were placed at 37° C. for pre-incubation for approximately 10 minutes.
(§8) 10 μL of 100 mM potassium phosphate buffer was added to each well of the NCF60 plate.
(§9) After the pre-incubation, 90 μL NADPH regeneration system working solution was added to each well of the 96-well plates, and then 10 μL was added to each well of the plates to initiate the reaction.
(§10) Incubation for an appropriate time (such as 5, 10, 20, 30, and 60 minutes). […]
(§11) The half-life T1/2 and the intrinsic clearance rate by liver microsome Clint(mic) were calculated by the following formulas: Ct=Cij·e^−k^s^·i • when […]

[2] = Metabolic stability in human liver microsomes; type: in vitro ADME; details: pH 7.4, 0.5 mg protein/mL, read-out: Intrinsic clearance rate of liver microsomes, Human
Description: as §1, §2, §3, §4, §5, §6, §7, §8, §9, §10, §11

[3] = Plasma protein binding rate (PPB) test, human plasma; type: in vitro ADME; details: 2 μM, dialysis 37° C. 4 hours
Description: The protein binding rates of the test compound in the plasma of humans and SD rats were determined.
796 μL of blank plasma from humans and SD rats (plasma purchased from BioreclamationIVT) were taken, 4 μL of working solution of the test compound (400 μM) or warfarin working solution (400 μM) was added and the final concentration of the test compound or warfarin was 2 μM. The sample was mixed thoroughly. […] All samples were analyzed by LC/MS/MS after protein precipitation, and the plasma protein unbound rate, binding rate and recovery rate was calculated according to the following formula: % unbound rate=100*free compound concentration at the membrane buffer side/total compound concentration at the membrane plasma side, % protein binding rate=100−% unbound rate, % recovery rate=100*(free compound concentration at the membrane buffer side+total compound concentration at the membrane plasma side)/total compound concentration before dialysis.

TrkA = molecular target: T1, TrkA (Homo sapiens, UniProt P04629); test: TrkA enzyme activity test (HTRF); type: biochemical; details: 0.5 nM TrkA kinase, 90 μM ATP, 23° C. 90 minutes
T1 construct: purchased Invitrogen PV4114
T1 sequence (P04629 33-796): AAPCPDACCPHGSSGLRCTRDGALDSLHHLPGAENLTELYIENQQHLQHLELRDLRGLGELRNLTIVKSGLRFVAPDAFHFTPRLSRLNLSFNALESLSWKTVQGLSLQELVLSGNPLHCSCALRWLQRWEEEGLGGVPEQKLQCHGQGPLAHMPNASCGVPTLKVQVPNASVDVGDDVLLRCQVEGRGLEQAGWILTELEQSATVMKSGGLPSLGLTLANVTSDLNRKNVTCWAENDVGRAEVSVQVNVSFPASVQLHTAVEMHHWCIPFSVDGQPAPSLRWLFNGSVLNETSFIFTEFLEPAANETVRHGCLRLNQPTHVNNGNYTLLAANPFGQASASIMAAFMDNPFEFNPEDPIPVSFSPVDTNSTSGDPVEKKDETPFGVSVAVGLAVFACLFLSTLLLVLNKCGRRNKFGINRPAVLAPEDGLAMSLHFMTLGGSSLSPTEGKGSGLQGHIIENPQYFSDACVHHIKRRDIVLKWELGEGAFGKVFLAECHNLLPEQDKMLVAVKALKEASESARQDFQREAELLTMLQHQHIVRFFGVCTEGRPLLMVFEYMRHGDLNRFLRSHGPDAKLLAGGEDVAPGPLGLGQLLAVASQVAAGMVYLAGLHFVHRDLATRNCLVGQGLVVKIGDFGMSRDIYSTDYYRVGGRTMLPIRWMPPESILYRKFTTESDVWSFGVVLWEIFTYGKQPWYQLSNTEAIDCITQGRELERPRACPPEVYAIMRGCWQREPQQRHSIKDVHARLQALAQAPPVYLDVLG
Description: TK detection kit Cisbio-62TK0PEJ
50 mM Hepes (pH 7.5), 5 mM MgCl2 (magnesium chloride), 0.01 mM orthovanadate (sodium vanadate), 1% BSA (bovine serum albumin), 1 mM (dithiothreitol)
This experiment used Cisbio's homogeneous time-resolved fluorescence resonance energy transfer (HTRF® method) for activity test. In the test plate, the enzyme, biotin-labeled peptide substrate, ATP, and test compound were mixed, and incubated for reaction. After the reaction, ethylenediaminetetraacetic acid was added to terminate the reaction; at the same time, Eu-labeled antibody and streptavidin-labeled XL665 were added for reaction and detection. The data were expressed by the readings of the fluorescence signal at 665 nm and 620 nm, where a high ratio of 665 nm/620 nm indicated higher activity, and a low ratio of 665 nm/620 nm indicated inhibition of activity.
1. […]
2. […] 10 μL of stop solution containing 20 mM EDTA, 1.34 nM phosphorylated substrate antibody, and 100 nM streptavidin-labeled fluorescent molecule XL-665 was then added, incubated at 23° C. for 60 minutes; the signal was read with Envision;
3. The inhibition rate of the compound was calculated from the data read by the instrument, and the IC50 value was calculated using the mode 205 in XLFIT5 of IDBS.

For COCCN1C[C@@H](n2ccc(F)c2)[C@H](NC(=O)Nc2c(C)c(-c3cnc(C4(F)COC4)nc3)nn2-c2ccccc2)C1 [Compound of formula (I)], the CLint scaled [1] was 24.9 mL/min/kg, the CLint scaled [2] was 51.7 mL/min/kg and the “Plasma protein unbound rate, Human plasma” value [3] was 13.2%. It also gave an IC50 (TrkA) of 0.56 nM.
